# Experimental data from a melting point compilation (Tetko et al.; mined from patent text by program, amines drawn as free bases though some values may be those of a salt).
row,SMILES,melting point [°C]
1,CC(=O)NC[C@H]1CN(c2ccc(N3CCC(C#N)(Nc4ccc(C#N)cc4)CC3)c(F)c2)C(=O)O1,210 to 212
2,C=Cc1cc(C)cc(NC(C)=O)n1,140
3,O=C1CCCc2c1ccc(O)c2O,191 to 194
4,CCOC(=O)C(=O)Nc1cc(C)c(C)cc1[N+](=O)[O-],109
5,CCc1c(-c2nnc(C)s2)cc2oc(=O)c(C)c(C)c2c1OC,201 to 203
6,Cc1ccc(C(=O)NC(NC(=S)Nc2ccccc2F)C(F)(F)F)cc1 (configuration not stated),197 to 198
7,N#Cc1c(-c2ccccc2)cc(N2CCOCC2)nc1Cl,198 to 200
8,CC(C)C1N2C=CC=CC2=CC1(C=C(Br)Br)c1ccc(F)cc1 (configuration not stated),134 to 135
9,CCOC(=O)C(Cl)(Cl)CCCCCCCCCCCCSc1ccc(NC(=O)c2ccc(Cl)cc2)cc1,130 to 131
10,CC(=O)c1c(C)[nH]c(C2CCCC2)c1C,162 to 164
11,Cc1ccn2c(=O)c(C(=O)NC3CCCC3)cnc2c1,220 to 222
12,CC12CC=CCC1CCC1C2CCC2(C)C(C(N)=O)CCC12 (configuration not stated),199 to 202
13,CN1CCCN(c2cc3ccccc3c(=O)[nH]2)CC1,171 to 172
14,O=CN(N=Cc1cccs1)c1ccc(Cl)cc1,103 to 105
15,C1CNCCNCCNCCNCCN1,92 to 103
16,Cn1nc(-c2ccncc2)nc1-c1ccncc1,168 to 170
17,CC(C)Oc1ccc(/C=C/C=C/CO)cc1,91 to 92
18,COC(=O)COc1cc2c(c3c1c(C(=O)C(N)=O)c(C)n3Cc1ccccc1)CCCC2,115 to 125
19,COC(=O)CN1CCC(NC(=O)OC(C)(C)C)CC1,96 to 98
20,CCOC(=O)[C@H](C)Nc1c(C)cc(C)cc1C,81 to 83
21,c1ccc2c(c1)OCC(CN1CCC(CNc3nc4cc5c(cc4s3)OCO5)CC1)O2 (configuration not stated),160

row,SMILES,melting point [°C]
1,CN(C)CCSCc1c(CCN(C)C)[nH]c2ccccc12,52 to 54
2,CCOC(=O)C(Cc1ccc(C(F)(F)F)cc1)C(=O)c1ccncc1 (configuration not stated),64 to 65
3,CCc1c(C(=O)C(N)=O)c2c(OCC(=O)NOC(C)(C)C)cccc2n1Cc1ccccc1,203 to 205
4,CCOC(=O)c1nc(C(=O)OCC)nc(C(=O)OCC)n1,169 to 170
5,CCCCCCCCCCCCCCC/C=C/C=O,35
6,CC(C)[Si](Oc1ccc([C@@H](O)[C@@H](C)N2CCC(O)(c3ccccc3)CC2)cc1F)(C(C)C)C(C)C (relative stereo),140 to 141
7,CC1(C(=O)c2c[nH]c3ncc(-c4ccc(N5CCCCC5)cc4)nc23)CCCCC1,234 to 236
8,CCCCCCCCCCCCCc1c[nH]c(C=O)c1,61 to 64
9,CCOC(=O)C=C(C)c1ccc([N+](=O)[O-])cc1,71 to 74
10,CC1(C)OC(=C(C#N)C#N)C(C#N)=C1C=Cc1c(F)c(F)c(N2C3C4CCC(C4)C32)c(F)c1F (configuration not stated),233
11,Cc1cc(C)cc(-c2nc(NC(=O)c3ccncc3)sc2-c2ccncc2)c1,302 to 304
12,CN1CCN(C2=Nc3cc(F)ccc3Nc3ccsc32)CC1,206 to 208
13,Cn1c(C#N)ccc1-c1cc(F)c2c(c1)C1(CC1)C(=O)N2,228 to 231
14,COc1cc(C)nc(C#N)n1,80 to 85
15,COc1ccc(/C=C/c2nc3c([nH]2)c(=O)n(C)c(=O)n3C)c(OC)c1,> 280
16,CSC1C(=O)Nc2ccc(C(F)(F)F)cc21 (configuration not stated),136 to 138
17,O=C(C=Cc1ccc(Cl)cc1)C1CC1,61
18,CNC(=S)NCCSCc1cncs1,86 to 88
19,CC(C)[C@H](NC(=O)OC(C)(C)C)C(=O)Nc1c(C(=O)CC(=O)Nc2nccs2)cccc1C(F)(F)F,120
20,CC(C)CNC1=NS(=O)(=O)c2sc(Cl)cc2N1,262 to 264

# Further lines, results first:
row,melting point [°C],SMILES
1,128 to 129,Cc1c(-c2ccccc2)oc2c(OCC3CO3)cccc2c1=O (configuration not stated)
2,> 270,Cc1ccc(C)n1-c1cc(Br)c2ccc3[nH]c(=O)c(=O)[nH]c3c2c1
3,96,COc1ccc(C(C)N(C)CCCOc2ccc(S(=O)(=O)c3c(C(C)C)n(C)c4ccccc34)cc2)cc1OC (configuration not stated)
4,242 to 244,COc1ccc(C=C2NC(=O)NC2=O)cc1OCc1ccccc1
5,> 250,COc1cc(NC(=O)C(C#N)=CNc2ccc(OC)c(Br)c2)c(Cl)cc1Cl
6,181 to 183,CCC(=O)NC[C@H]1CN(c2ccc3c(c2)C[C@@H](C)N3C(=O)OCc2ccccc2)C(=O)O1
7,184,O=[N+]([O-])c1ccccc1SNc1nc(OCc2ccc(F)cc2)ncc1F
8,82 to 82.5,CSc1ccc(C(O)c2occc(=O)c2OCc2ccccc2)cc1 (configuration not stated)
9,148,Cn1ncnc1COc1nn2c(-c3ccoc3)nncc2c1-c1ccccc1F
10,52 to 54,COc1ccc(-n2ccc3ccccc32)cc1
11,201 to 203,O=C1NCNCC1(c1ccccc1)c1ccccn1 (configuration not stated)
12,70,CCC1CC(=O)N(Cc2cccc(NC(C)=O)c2)N=C1c1ccc(OC)c(OC2CCCC2)c1 (configuration not stated)
13,234,O=C1NCCc2c(-c3ccccc3CCCO)[nH]c3cccc1c23
14,> 250,O=c1cc(-c2nnn[nH]2)oc2c(COc3ccc(OCc4ccc5ccccc5n4)cc3)cccc12
15,142 to 143,COc1ccc(-c2ncn(CCCCCCCC(=O)O)c2-c2ccc(OC)cc2)cc1
16,162 to 166,CC(=NNc1ccc(C2=NNC(=O)CC2C)cc1)c1cc(O)cc(O)c1 (configuration not stated)

row,melting point [°C],SMILES
1,117 to 119,O=C(O)c1ccc(OCCc2c(CCNS(=O)(=O)Cc3ccc(Cl)c(Cl)c3)n(C(c3ccccc3)c3ccccc3)c3ccc(Cl)cc23)cc1F
2,165 to 169,CCS(=O)(=O)c1ccc(F)c(C#Cc2cc(Cl)ccc2OCC(=O)O)c1
3,153,CN1CCC(OC2c3ccccc3CCn3c2nc(-c2ccccc2)c3I)CC1 (configuration not stated)
4,182 to 183,O=C(c1ccc(F)cc1)c1c(OCc2ccccc2)c(=O)ccn1CCO
5,218,O=C(O)CNC(=NS(=O)(=O)c1ccccc1)Nc1cccc(Cl)c1
6,184 to 185,COc1ccc([C@H](O)[C@@H](Cc2ccc(C(F)(F)F)cc2)NC(=O)c2ccc(F)c3ccccc23)cc1 (racemic)
7,127 to 131,COc1ccc(NS(=O)(=O)c2cccc3ccccc23)cc1OCCc1ccc2ccccc2c1
8,233 to 236,Cc1ccc(-c2cc3cc(C(=O)Nc4ccc(CN(C)C5CCOCC5)cc4)ccc3o2)cc1
9,285 to 286,Cn1nc(CCc2ccncc2)c2c(=O)n(-c3ccccc3)c3ncccc3c21
10,63 to 67,CC[C@H](COCC#Cc1ccccc1)n1cnc2c(N)nc3ccccc3c21
11,143 to 145,COCc1nc2c(NCc3c(C)cccc3C)cc(Br)cc2n1C
12,172,COc1ccccc1C1(O)OC(=O)C(c2ccc3c(c2)OCO3)=C1Cc1ccc2nsnc2c1 (configuration not stated)
13,179,Cc1cc(OS(=O)(=O)c2c(Cl)cccc2Cl)cc2c(C3CCN(C)CC3)c[nH]c12
14,142 to 143,CC(C)(CCn1ccnc1)NCC(O)c1ccc(OCc2ccccc2)c(NC(N)=O)c1 (configuration not stated)
15,170 to 171,O=C(O)C1CCc2c(c3ccccc3n2C(=O)c2cccc(F)c2)C1 (configuration not stated)
